Reference: patent publication US10669272B2, “Substituted naphthyridinone compounds useful as T cell activators” (BRISTOL-MYERS SQUIBB COMPANY, priority 2018, dated 2020)
Where two headings read alike, the source gives them in different places.

Key:
human DGKα = target: T1, human DGKα (Homo sapiens, UniProt P23743); assay: DGKα LIPGLO assay (extruded liposome substrate), in vitro DGK inhibition; assay type: biochemical; details: read-out: DGKa LIPGLO IC50
T1 construct: TVMV protease cleavage site (C); Hexa-His (C); made in house; host or cells: Sf9 insect cells (baculovirus, Bac-to-Bac)
T1 sequence (P23743 with tags, fused parts or gaps): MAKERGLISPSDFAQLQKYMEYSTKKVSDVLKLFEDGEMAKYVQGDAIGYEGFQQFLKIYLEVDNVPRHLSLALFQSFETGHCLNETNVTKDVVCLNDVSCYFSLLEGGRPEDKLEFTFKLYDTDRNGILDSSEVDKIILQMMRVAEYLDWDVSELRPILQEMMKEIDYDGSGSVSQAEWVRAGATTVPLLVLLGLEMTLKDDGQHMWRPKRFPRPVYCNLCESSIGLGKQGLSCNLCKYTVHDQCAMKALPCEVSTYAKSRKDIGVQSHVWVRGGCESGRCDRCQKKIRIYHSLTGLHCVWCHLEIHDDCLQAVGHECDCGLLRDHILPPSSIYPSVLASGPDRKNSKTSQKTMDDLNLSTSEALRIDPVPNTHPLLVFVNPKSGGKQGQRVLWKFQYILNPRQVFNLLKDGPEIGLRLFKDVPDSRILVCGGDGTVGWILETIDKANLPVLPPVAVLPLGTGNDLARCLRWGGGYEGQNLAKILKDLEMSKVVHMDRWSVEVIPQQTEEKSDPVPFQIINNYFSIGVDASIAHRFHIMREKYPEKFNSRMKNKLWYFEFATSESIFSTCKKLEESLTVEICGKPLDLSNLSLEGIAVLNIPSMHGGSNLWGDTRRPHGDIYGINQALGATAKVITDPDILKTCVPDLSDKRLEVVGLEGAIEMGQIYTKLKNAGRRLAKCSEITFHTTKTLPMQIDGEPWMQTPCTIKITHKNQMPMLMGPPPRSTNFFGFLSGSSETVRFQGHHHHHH

Human venous whole blood = assay: Human whole blood IFN-γ assay; assay type: cell-based; details: human whole blood, read-out: INFg Whole Blood Normalized Agonist EC50;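 further: blood from healthy donors exposed to compound for 1 h before stimulation with anti-CD3 and anti-CD28 at 1 µg/mL each, IFN-γ quantified in supernatant by AlphaLISA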
Description: Human Whole Blood IFN-γ Assay
Human venous whole blood (22.5 μL per well), obtained from healthy donors, was pre-treated with compounds for one hour at 37° C. in a humidified 95% air/5% CO2 incubator. The blood was stimulated with 2.5 μL anti-human CD3 and anti-CD28 mAb at a final concentration of 1 μg/mL each for 24 hours at 37° C. IFN-γ in the supernatants was measured using AlphLISA kit (Cat # AL217).

human DGKζ = target: T2, human DGKζ (Homo sapiens, UniProt Q13574); assay: DGKζ LIPGLO assay (extruded liposome substrate), in vitro DGK inhibition; assay type: biochemical; details: read-out: DGKz LIPGLO IC50
T2 construct: TVMV protease cleavage site (C); Hexa-His (C); made in house; host or cells: Sf9 insect cells (baculovirus, Bac-to-Bac)
T2 sequence (Q13574 with tags, fused parts or gaps isoform Q13574-4): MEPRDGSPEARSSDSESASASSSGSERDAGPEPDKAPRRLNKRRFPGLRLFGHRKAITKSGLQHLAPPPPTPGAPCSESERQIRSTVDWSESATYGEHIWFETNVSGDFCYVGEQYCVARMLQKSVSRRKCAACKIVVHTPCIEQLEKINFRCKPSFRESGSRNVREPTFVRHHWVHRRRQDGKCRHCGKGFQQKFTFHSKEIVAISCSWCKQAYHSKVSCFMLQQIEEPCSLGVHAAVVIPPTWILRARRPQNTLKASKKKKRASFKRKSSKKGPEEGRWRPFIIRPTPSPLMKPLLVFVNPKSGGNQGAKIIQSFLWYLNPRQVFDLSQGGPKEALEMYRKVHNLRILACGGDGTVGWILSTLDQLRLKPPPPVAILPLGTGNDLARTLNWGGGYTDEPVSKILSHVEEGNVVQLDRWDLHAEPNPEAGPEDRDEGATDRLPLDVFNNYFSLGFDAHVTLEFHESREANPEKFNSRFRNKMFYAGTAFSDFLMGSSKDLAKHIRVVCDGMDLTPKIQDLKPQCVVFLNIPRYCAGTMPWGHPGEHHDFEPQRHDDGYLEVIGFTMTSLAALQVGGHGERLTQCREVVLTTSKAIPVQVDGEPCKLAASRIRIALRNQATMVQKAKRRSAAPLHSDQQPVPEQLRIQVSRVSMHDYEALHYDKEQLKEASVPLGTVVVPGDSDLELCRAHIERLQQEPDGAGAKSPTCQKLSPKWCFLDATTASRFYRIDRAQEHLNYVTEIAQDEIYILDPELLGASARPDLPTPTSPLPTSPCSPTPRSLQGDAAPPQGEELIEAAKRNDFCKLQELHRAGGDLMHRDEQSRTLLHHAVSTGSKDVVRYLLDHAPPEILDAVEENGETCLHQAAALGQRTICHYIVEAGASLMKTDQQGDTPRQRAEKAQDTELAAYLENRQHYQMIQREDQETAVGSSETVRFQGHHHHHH

[1] = normalized to 3 μM reference compound with anti-CD3 plus anti-CD28 as 100% activation
[2] = Homo sapiens, 24 h, normalized to 3 μM reference compound with anti-CD3 plus anti-CD28 as 100% activation
[3] = Homo sapiens, 24 h, anti-CD3 plus anti-CD28, 24 hours, 3 μM reference compound = 100% activation
[4] = anti-CD3 plus anti-CD28, 24 hours, 3 μM reference compound = 100% activation

## COc1cc(F)c(C(C)N2C[C@H](C)N(c3cc(=O)n(C)c4ccc(C#N)nc34)C[C@H]2C)cc1OC (single isomer, unassigned) [Example 1246]
Human DGKα; liposome (LIPGLO) assay
  IC50: 11000 nM
Human venous whole blood; [1]
  EC50: 2100 nM
Human DGKζ; liposome (LIPGLO) assay
  IC50: 100 nM

## C[C@@H]1CN(c2cc(=O)n(C)c3ccc(C#N)nc23)[C@@H](C)CN1C(c1ccc(OC(F)(F)F)cc1)c1ccc(F)cn1 (single isomer, unassigned) [Example 468]
Human DGKα; liposome (LIPGLO) assay
  IC50: 140 nM
Human venous whole blood; [1]
  EC50: 1300 nM
Human DGKζ; liposome (LIPGLO) assay
  IC50: 1600 nM

## CC(c1ccc(C(F)(F)F)cn1)N1C[C@H](C)N(c2cc(=O)n(C)c3ccc(C#N)nc23)C[C@H]1C (single isomer, unassigned) [Example 643]
Human DGKα; liposome (LIPGLO) assay
  IC50: 310 nM
Human venous whole blood; [1]
  EC50: 5300 nM
Human DGKζ; liposome (LIPGLO) assay
  IC50: 1600 nM

## CC(c1cccc(OC(F)(F)F)c1)N1C[C@H](C)N(c2cc(=O)n(C)c3ccc(C#N)nc23)C[C@H]1C (single isomer, unassigned) [Example 1267]
Human DGKα; liposome (LIPGLO) assay
  IC50: 3500 nM
Human venous whole blood; [2]
  EC50: 730 nM
Human DGKζ; liposome (LIPGLO) assay
  IC50: 110 nM

## CC(=O)N1CC(c2noc(C(c3ccc(F)cc3)N3C[C@H](C)N(c4cc(=O)n(C)c5ccc(C#N)nc45)C[C@H]3C)n2)C1 (single isomer, unassigned) [Example 1297]
Human DGKα; liposome (LIPGLO) assay
  IC50: 220 nM
Human venous whole blood; [2]
  EC50: 2700 nM
Human DGKζ; liposome (LIPGLO) assay
  IC50: 92 nM

## CC(C)Oc1ccc(C(C)N2C[C@H](C)N(c3cc(=O)n(C)c4ccc(C#N)nc34)C[C@H]2C)cn1 (single isomer, unassigned) [Example 1325]
Human DGKα; liposome (LIPGLO) assay
  IC50: 1300 nM
Human venous whole blood; [1]
  EC50: 1800 nM
Human DGKζ; liposome (LIPGLO) assay
  IC50: 910 nM

## C[C@@H]1CN(c2cc(=O)n(C)c3ccc(C#N)nc23)[C@@H](C)CN1Cc1ccc(OC(F)(F)F)cc1F (single isomer, unassigned) [Example 591]
Human DGKα; liposome (LIPGLO) assay
  IC50: 3100 nM
Human venous whole blood; [2]
  EC50: 19000 nM
Human DGKζ; liposome (LIPGLO) assay
  IC50: 3900 nM

## COCc1cc(F)ccc1C(C)N1C[C@H](C)N(c2cc(=O)n(C)c3ccc(C#N)nc23)C[C@H]1C (single isomer, unassigned) [Example 1315]
Human DGKα; liposome (LIPGLO) assay
  IC50: 79000 nM
Human venous whole blood; [2]
  EC50: 20000 nM
Human DGKζ; liposome (LIPGLO) assay
  IC50: 1400 nM

## C[C@@H]1CN(c2cc(=O)n(C)c3ccc(C#N)nc23)[C@@H](C)CN1Cc1cc(C#N)cs1 [Example 1422, 8-((2S,5R)-4-((4-cyanothiophen-2-yl)methyl)-2,5-dimethylpiperazin-1-yl)-5-methyl-6-oxo-5,6-dihydro-1,5-naphthyridine-2-carbonitrile]
Human DGKα; liposome (LIPGLO) assay
  IC50: 290 nM
Human venous whole blood; [2]
  EC50: 6900 nM
Human DGKζ; liposome (LIPGLO) assay
  IC50: 4200 nM

## C[C@@H]1CN(c2c(C#N)c(=O)n(C)c3ccc(C#N)nc23)[C@@H](C)CN1C(c1ccc(F)cc1)c1ccns1 (single isomer, unassigned) [Example 854]
Human DGKα; DGKα liposome (LIPGLO) assay
  IC50: 5100 nM
Human venous whole blood; [3]
  EC50: 10000 nM
Human DGKζ; DGKζ liposome (LIPGLO) assay
  IC50: 1900 nM

## COC(=O)c1cccc(C(C)N2C[C@H](C)N(c3c(C#N)c(=O)n(C)c4ccc(C#N)nc34)C[C@H]2C)c1 (single isomer, unassigned) [Example 795]
Human DGKα; DGKα liposome (LIPGLO) assay
  IC50: 13000 nM
Human venous whole blood; [3]
  EC50: 20000 nM
Human DGKζ; DGKζ liposome (LIPGLO) assay
  IC50: 160000 nM

## CC[C@H]1CN(C(C)c2ccc(F)cc2F)[C@H](CC)CN1c1cc(=O)n(C)c2ccc(C#N)nc12 (single isomer, unassigned) [Example 1056]
Human DGKα; liposome (LIPGLO) assay
  IC50: 880 nM
Human venous whole blood; [1]
  EC50: 580 nM
Human DGKζ; liposome (LIPGLO) assay
  IC50: 590 nM

## COc1cc(C(C)N2C[C@H](C)N(c3cc(=O)n(C)c4ccc(C#N)nc34)C[C@H]2C)ccc1F (single isomer, unassigned) [Example 1231]
Human DGKα; liposome (LIPGLO) assay
  IC50: 3800 nM
Human venous whole blood; [1]
  EC50: 1200 nM
Human DGKζ; liposome (LIPGLO) assay
  IC50: 110 nM

## C[C@@H]1CN(c2cc(=O)n(C)c3ccc(C#N)nc23)[C@@H](C)CN1C(c1c(F)cc(O)cc1F)C(F)(F)F (single isomer, unassigned) [Example 592]
Human DGKα; liposome (LIPGLO) assay
  IC50: 5500 nM
Human venous whole blood; [2]
  EC50: 3600 nM
Human DGKζ; liposome (LIPGLO) assay
  IC50: 19000 nM

## COCCOc1cc(C(C)N2C[C@H](C)N(c3cc(=O)n(C)c4ccc(C#N)nc34)C[C@H]2C)ccc1OC (single isomer, unassigned) [Example 1303]
Human DGKα; liposome (LIPGLO) assay
  IC50: 65000 nM
Human venous whole blood; [2]
  EC50: 20000 nM
Human DGKζ; liposome (LIPGLO) assay
  IC50: 2900 nM

## Cc1cc(C(C)N2C[C@H](C)N(c3c(C#N)c(=O)n(C)c4ccc(C#N)nc34)C[C@H]2C)no1 (single isomer, unassigned) [Example 803]
Human DGKα; DGKα liposome (LIPGLO) assay
  IC50: 2000 nM
Human venous whole blood; [3]
  EC50: 20000 nM
Human DGKζ; DGKζ liposome (LIPGLO) assay
  IC50: 7000 nM

## CC[C@@H]1CN(c2c(F)c(=O)n(C)c3ccc(C#N)nc23)CCN1C(c1ccc(Cl)cc1)c1ccc(Cl)cc1 [Example 178, (R)-8-(4-(bis(4-chlorophenyl)methyl)-3-ethylpiperazin-1-yl)-7-fluoro-5-methyl-6-oxo-5,6-dihydro-1,5-naphthyridine-2-carbonitrile]
Human DGKα; liposome (LIPGLO) assay
  IC50: 610 nM
Human venous whole blood; [2]
  EC50: 580 nM
Human DGKζ; liposome (LIPGLO) assay
  IC50: 390 nM

## CC[C@H]1CN(C(C)c2ccc(C(F)(F)F)cc2F)[C@H](CC)CN1c1cc(=O)n(C)c2ccc(C#N)nc12 (single isomer, unassigned) [Example 1364]
Human DGKα; liposome (LIPGLO) assay
  IC50: 150 nM
Human venous whole blood; [1]
  EC50: 58 nM
Human DGKζ; liposome (LIPGLO) assay
  IC50: 29 nM

## CC(c1ccc(C#N)cc1F)N1C[C@H](C)N(c2cc(=O)n(C)c3ccc(C#N)nc23)C[C@H]1C (single isomer, unassigned) [Example 1227]
Human DGKα; liposome (LIPGLO) assay
  IC50: 51 nM
Human venous whole blood; [1]
  EC50: 670 nM
Human DGKζ; liposome (LIPGLO) assay
  IC50: 110 nM

## CC(c1ccc2c(c1)OCCO2)N1C[C@H](C)N(c2cc(=O)n(C)c3ccc(C#N)nc23)C[C@H]1C (single isomer, unassigned) [Example 1259]
Human DGKα; liposome (LIPGLO) assay
  IC50: 5600 nM
Human venous whole blood; [1]
  EC50: 4900 nM
Human DGKζ; liposome (LIPGLO) assay
  IC50: 670 nM

## CC(c1ccc(Cl)cc1)N1CCN(c2c(C#N)c(=O)n(C)c3ccc(C#N)nc23)C[C@H]1C (single isomer, unassigned) [Example 979]
Human DGKα; DGKα liposome (LIPGLO) assay
  IC50: 910 nM
Human venous whole blood; [3]
  EC50: 20000 nM
Human DGKζ; DGKζ liposome (LIPGLO) assay
  IC50: 55000 nM

## CCC(c1cc(OC(F)(F)F)ccc1F)N1C[C@H](CC)N(c2cc(=O)n(C)c3ccc(C#N)nc23)C[C@H]1C (single isomer, unassigned) [Example 1380]
Human DGKα; liposome (LIPGLO) assay
  IC50: 850 nM
Human venous whole blood; [1]
  EC50: 470 nM
Human DGKζ; liposome (LIPGLO) assay
  IC50: 180 nM

## C[C@@H]1CN(c2c(C#N)c(=O)n(C)c3ccc(C#N)nc23)CCN1Cc1ccc(F)cc1Cl [Example 993]
Human DGKα; DGKα liposome (LIPGLO) assay
  IC50: 1300 nM
Human venous whole blood; [3]
  EC50: 3800 nM
Human DGKζ; DGKζ liposome (LIPGLO) assay
  IC50: 3900 nM

## CCC(c1ccc(C2CC2)cc1F)N1C[C@H](C)N(c2cc(=O)n(C)c3ccc(C#N)nc23)C[C@H]1C (stereo partly drawn) [Example 1219]
Human DGKα; liposome (LIPGLO) assay
  IC50: 67 nM
Human venous whole blood; [1]
  EC50: 320 nM
Human DGKζ; liposome (LIPGLO) assay
  IC50: 69 nM

## COc1ccc(C(C)N2C[C@H](C)N(c3c(C#N)c(=O)n(C)c4ccc(C#N)nc34)C[C@H]2C)nc1 (single isomer, unassigned) [Example 800]
Human DGKα; DGKα liposome (LIPGLO) assay
  IC50: 380 nM
Human venous whole blood; [4]
  EC50: 5900 nM
Human DGKζ; DGKζ liposome (LIPGLO) assay
  IC50: 330 nM

## CC(c1ccc(OC(F)(F)F)cc1F)N1C[C@H](C)N(c2cc(=O)n(C)c3ccc(C#N)nc23)C[C@H]1C (stereo partly drawn) [Example 437, 8-((2S,5R)-4-(1-(2-fluoro-4-(trifluoromethoxy)phenyl)ethyl)-2,5-dimethylpiperazin-1-yl)-5-methyl-6-oxo-5,6-dihydro-1,5-naphthyridine-2-carbonitrile]
Human DGKα; liposome (LIPGLO) assay
  IC50: 400 nM
Human venous whole blood; [2]
  EC50: 540 nM
Human DGKζ; liposome (LIPGLO) assay
  IC50: 670 nM

## C[C@@H]1CN(c2cc(=O)n(C)c3ccc(C#N)nc23)[C@@H](C)CN1C(c1ccccc1)c1ccc(Cl)cc1 (single isomer, unassigned) [Example 670]
Human DGKα; liposome (LIPGLO) assay
  IC50: 1100 nM
Human venous whole blood; [1]
  EC50: 2800 nM
Human DGKζ; liposome (LIPGLO) assay
  IC50: 3600 nM

## C[C@@H]1CN(c2c(C#N)c(=O)n(C)c3ccc(C#N)nc23)CCN1C(c1ccc(F)cc1)c1ccc(C#N)cn1 (single isomer, unassigned) [Example 924]
Human DGKα; DGKα liposome (LIPGLO) assay
  IC50: 3200 nM
Human venous whole blood; [4]
  EC50: 4000 nM
Human DGKζ; DGKζ liposome (LIPGLO) assay
  IC50: 10000 nM
